# Measurements: US9808477B2 (Macau University of Science and Technology, priority 2015, dated 2017)
# How the values were obtained:
# [1] = system: MDR1 mRNA in A2780/T cells; test: RT-PCR analysis of MDR1 mRNA; assay type: cell-based, human; conditions: nobiletin at concentrations used in reversal assays, 48 h
# Method: RT-PCR was performed to evaluate MDR1 mRNA expression. mRNA from cell lysates were purified by binding to poly(dT) magnetic beads (Life technologies) and reverse transcribed by using SuperScript II (Life technologies). Standard quantitative RT-PCR was performed in duplicates at least two to three times by using SYBR Green (Molecular Probes) protocols on the ViiA™ 7 Real-Time PCR System (Life technologies). The primer sequences: 5′-[…]-3′ (SEQ ID NO:1) and 3′-[…]-5′ (SEQ ID NO:2) for MDR1, and 5′-[…]-3′ (SEQ ID NO:3) and 3′-[…]-[…]-5′ (SEQ ID NO:4) for control gene eukaryotic translation initiation factor (TIF). RT-PCR data were normalized by measuring average cycle threshold (Ct) ratios between candidate genes and control gene TIF.
# [2] = system: A2780 cells; test: Intracellular accumulation of doxorubicin and Flutax-2; assay type: cell-based, human; conditions: parental A2780, nobiletin 4.5 μM
# Method: A2780 or A2780/T cells (5×10^6) were cultured on the cover glass (ISO LAB 20×20 mm). […] After treatment, cells were fixed in 4 wt % formaldehyde (Sigma-Aldrich). Nuclear DNA was stained with 1 μg/mL blue-fluorescent DAPI (1 mg/mL in H2O stock solution; Invitrogen D1306). One drop of fluorescent preservation solution (fluorsave reagent, CALBIOCHEM) was added before observation. Imaging was carried out for comparing the intracellular accumulation of DOX and flutax-2 with a Fluorescence Microscopy (Leica DM2500, Leica, Germany).
# Cells were detached, re-suspended in 500 μl of PBS after washed twice with cold PBS, and analyzed by flow cytometry (BD FACS Aria, BD Biosciences, San Jose, Calif.). Excitation and emission wavelengths (nm) used for DOX and flutax-2 were as follows: 480 to 585; and 496 to 524.
smiles,measurement,setting,value
COc1ccc(-c2cc(=O)c3c(OC)c(OC)c(OC)c(OC)c3o2)cc1OC [nobiletin],expression of MDR1 mRNA,[1],did not significantly alter
same,DOX and Flutax-2 levels,[2],no effect
